Assay results as given in US20240365779A1, “POLLEN PRESERVATION COMPOSITIONS” (PowerPollen, Inc., priority 2017, published 2024).
Entries after “also recorded” stand apart in the source; their conditions may differ. Each block holds one molecule with its values, some of them ahead of it.

How the values were obtained:
[1] = test system: rice pollen; assay: Rice pollen viability by Amphasys after anther storage; type: cell-based
Experimental: Another experiment was conducted to test the efficacy of maintaining separation of pollen grains in rice. Rice anthers were collected from a pool of cut back glumes. One sample of the anthers was ground with a nylon pestle in 1.5 mL of Ampha 6 media, filtered, and run through the Amphasys system to measure T0 viability. Amphasys provides a reliable determination of pollen viability using an impedance flow cytometer, which measures the electrical properties of pollen grains.
A second subsample of the anthers was divided into three groups that were stored whole at 5° C. in cryo vials. […]. The samples in the vials had either no storage medium, lactose particulate storage medium, or chemical grade lactose combined with 2% Sipernat® 340 storage medium. After storage for either 4 days or 10 days, pollen was extracted from the stored anthers using the nylon pestle, and viability was determined using Amphasys.

[2] = test system: maize pollen; assay: Maize pollen viability by Amphasys impedance flow cytometry after storage with a substance; type: cell-based; details: 1:1 volume pollen to sugar, 4° C.
Experimental: In initial experiments considering different types separation compounds to use for pollen storage, experiments were conducted using activated charcoal as a separator. Field pollen was hand collected from various maize genotypes, and temporarily stored in 50 ml conical tubes, at 5° C. T0 Amphasys was conducted along with pollen moisture content (PMC) determination of the unmixed control pollen. Amphasys provides a reliable determination of pollen viability using an impedance flow cytometer, which measures the electrical properties of pollen grains. Viability at T0 was 97% with a PMC of 57% using the standard overnight oven method. The pollen was mixed with charcoal powder (activated charcoal) at various percentages. Activated charcoal is often used to absorb toxic substances. Mixed samples were then stored at 5° C., in uncapped 50 mL tubes. Timepoint data was collected at days 1 and 6, using Amphasys when the concentration of charcoal would allow. Small quantities of sample were suspended in Ampha 6 media and then filtered with a 150 μm filter to remove any large particles that might affect the fluidics on the Amphasys. […] Used in lower quantities, 2.5-25% in this case, viability remained as high as 92% at 6 days storage.
In continued efforts to test different substances for the purposes of pollen grain separation, an experiment was conducted with a series of different saccharides to determine efficacy for pollen grain separation and preservation. Mixed pollen was collected from various actively-shedding maize plants grown in the greenhouse. Hand collection was done with a funnel and screen to remove anthers. The bulk pollen sample was divided into four equal portions, each of which was approximately 5 mL in volume. Each sample of pollen was stored in a capped 50 mL conical tube at 5° C. overnight and its viability was tested using Amphasys roughly 24 hours after collection. A 1:1 volume ratio of one of three different types of sugars was added to each tube so that the amount of sugar was equal to the amount of pollen in each tube. […]

[3] = Flowability / clumping observation of pollen-substance mixtures; type: physicochemical; details: 1:1 pollen to sugar, 4° C.
[4] = test system: wheat pollen; assay: Wheat pollen viability by Amphasys after anther storage; type: cell-based
Experimental: In order to determine whether the method of maintaining pollen separation was effective in other plant species, experiments were conducted with wheat. Wheat heads of Grandin wheat variety were collected at early emergence stage and post-emergence stage. At the post emergence stage, a few anthers were exposed on the wheat heads. The anthers were collected from a subsample of the heads and the collected anthers were ground with a nylon pestle in 1.5 mL of Ampha 6 media, filtered, and run through the Amphasys system to measure T0 viability. Amphasys provides a reliable determination of pollen viability using an impedance flow cytometer, which measures the electrical properties of pollen grains.
A second subsample of the early emergence stage and post-emergence wheat heads were taken from different regions of each head. These samples were stored whole at 5° C. in cryo vials. The samples in the vials had either no storage medium, lactose particulate storage medium, or lactose (Lab grade D-lactose monohydrate, RPI #L26100-1000.0) combined with 2% Sipernat® 340 storage medium. After storage for either 3 or 14 days, pollen was extracted from the stored anthers using the nylon pestle, and viability was determined using Amphasys.

[5] = test system: maize pollen; assay: Germination assay of stored maize pollen (pollen tube formation); type: cell-based; details: equal portion with pollen, 20 hours of storage at 4 degrees Celsius
Experimental: Casein and cellulose were both tested separately as possible substances for maintaining or increasing pollen viability. […] Freshly harvested maize pollen was harvested from actively shedding tassels. The pollen was divided into two equal portions, each of which was placed into a 50 ml centrifuge tube. […] Each tube was stored for 24 hours at 4 degrees Celsius. A germination assay was conducted after 24 hours. […] Sonneborn® PD-23 mineral oil was tested as a pollen separation agent. This substance was a liquid at all stages of the described experiment. Freshly harvested pollen from a bulk of maize plants was placed into mineral oil and stored at 4 degree Celsius for a period of 20 hours. After 20 hours, germination media was applied into the oil formulation. The results supported that liquid serves as a proficient storage media for pollen. […] This further supports the concept that separation of pollen grains increases viability.

- flowability of pollen in sample [3]: slightly clumpy
Molecule: OC[C@H]1O[C@@H](O[C@H]2[C@H](O)[C@@H](O)C(O)O[C@@H]2CO)[C@H](O)[C@@H](O)[C@H]1O (some centres unmarked) [lactose]
- Pollen Viability (%) ([1]; Day 4, anthers stored whole at 5° C.): 57-63%
- Pollen Viability (%) ([1]; Day 10, anthers stored whole at 5° C.): 24-27%
- viability ([2]; Day 8): 77%
- Early Emergence Heads Viability (%) ([4]; Day 3, stored whole at 5° C.): 28-41%
- Post-emergence Heads Viability (%) ([4]; Day 3, stored whole at 5° C.): 27-35%
- Early Emergence Heads Viability (%) ([4]; Day 14, stored whole at 5° C.): 39-44%
- Post-emergence Heads Viability (%) ([4]; Day 14, stored whole at 5° C.): 6-17%

Molecule: casein
- viability (germination assay) [5]: largely, if not completely unviable; also recorded: little to no viability

Molecule: OC[C@H]1O[C@H](O[C@H]2O[C@H](CO)[C@@H](O)[C@H](O)[C@H]2O)[C@H](O)[C@@H](O)[C@@H]1O [trehalose]
- viability ([2]; Day 2, compared to the other 3 samples): sharper decline
- viability ([2]; after 24 hours of storage, compared to the other samples): slight decline in viability
